Data published in patent publication US20110040086A1, “Novel Beta-Lactam Antibiotics, Methods for Their Production, and Their Use” (DRITTE PATENTPORTFOLIO BETEILIGUNGSGESELLSCHAFT MB, priority 2007, published 2011).

Columns and labels:
[1] = system: Escherichia coli SBUG 1135; assay: agar diffusion test (Test System 1, antimicrobial effect); type: cell-based; parameters: key: r = resistant (no detectable zone of inhibition)
Summary of the method: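 E. coli SBUG 1135 grown 17 h at 37° C, 180 rpm, diluted 1:100 and seeded in nutrient agar at ~10^6 cells. Discs loaded with 10, 50 or 100 μg compound (methanol or water); inhibition-zone diameter (mm) read after 20 h at 37° C.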

S. epidermidis 125 = assay: agar diffusion test (Test System II, multi-resistant germs); type: cell-based, Staphylococcus epidermidis
Summary of the method: (§1)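 Semi-synthetic compounds were tested by disc diffusion at three loadings, 10, 50 and 100 μg per disc. Bacteria at McFarland 0.5 were spread on Müller-Hinton agar II; after 18-20 h at 37 °C the inhibition zone diameter was taken.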

[2] = system: Staphylococcus aureus 315; assay: as above; type: cell-based; parameters: key: r = resistant (no detectable zone of inhibition)
Summary of the method: as §1

[3] = system: Enterococcus faecalis 769; assay: as above; type: cell-based; parameters: key: r = resistant (no detectable zone of inhibition)
Summary of the method: as §1

S. aureus 526 = assay: as above; type: cell-based, Staphylococcus aureus; parameters: key: r = resistant (no detectable zone of inhibition)
Summary of the method: as §1

S. aureus 34289 = assay: as above; type: cell-based, Staphylococcus aureus; parameters: key: r = resistant (no detectable zone of inhibition)
Summary of the method: as §1

S. aureus 36881 = assay: as above; type: cell-based, Staphylococcus aureus; parameters: key: r = resistant (no detectable zone of inhibition)
Summary of the method: as §1

[4] = system: S. aureus North Germany strain; assay: as above; type: cell-based, Staphylococcus aureus; parameters: key: r = resistant (no detectable zone of inhibition)
Summary of the method: as §1

S. aureus 33490 = assay: as above; type: cell-based, Staphylococcus aureus; parameters: key: r = resistant (no detectable zone of inhibition)
Summary of the method: as §1

S. aureus 39105 = assay: as above; type: cell-based, Staphylococcus aureus; parameters: key: r = resistant (no detectable zone of inhibition)
Summary of the method: as §1

S. aureus 520 = assay: as above; type: cell-based, Staphylococcus aureus; parameters: key: r = resistant (no detectable zone of inhibition)
Summary of the method: as §1

[5] = system: Bacillus megaterium SBUG 1152; assay: agar diffusion test (Test System 1, antimicrobial effect); type: cell-based
Summary of the method: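 B. megaterium SBUG 1152 grown overnight (17 h, 37° C., 180 rpm) and seeded at 10^6 cells per 10 ml nutrient agar. Compound at 10, 50 and 100 μg, dissolved in methanol or water, applied to paper discs. Inhibition-zone diameter (mm) read after 20 h at 37° C.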

S. epidermidis 1068 = assay: agar diffusion test (Test System II, multi-resistant germs); type: cell-based, Staphylococcus epidermidis; parameters: key: r = resistant (no detectable zone of inhibition)
Summary of the method: as §1

S. epidermidis 563 = assay: as above; type: cell-based, Staphylococcus epidermidis; parameters: key: r = resistant (no detectable zone of inhibition)
Summary of the method: as §1

S. epidermidis 847 = assay: as above; type: cell-based, Staphylococcus epidermidis; parameters: key: r = resistant (no detectable zone of inhibition)
Summary of the method: as §1

S. epidermidis 1071 = assay: as above; type: cell-based, Staphylococcus epidermidis; parameters: key: r = resistant (no detectable zone of inhibition)
Summary of the method: as §1

B. subtilis AWD 166 = assay: agar diffusion test (antimicrobial effect); type: cell-based, Bacillus subtilis
Summary of the method: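 Nutrient agar seeded with B. subtilis AWD 166 to give dense non-confluent colonies; compounds in methanol or distilled water applied to discs at 10, 50, 100 μg. After 20 h at 37 °C, inhibition zone diameter measured in mm.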

E. faecalis 945 = assay: agar diffusion test (Test System II, multi-resistant germs); type: cell-based, Enterococcus faecalis; parameters: key: r = resistant (no detectable zone of inhibition)
Summary of the method: as §1

Measured: Diameter of zone of inhibition

7-[2-(2-ethoxycarbonyl-3,6-dioxocyclohexa-1,4-dienylamino)-2-(4-hydroxyphenyl)-acetylamino]-desacetoxycephalosporanic acid [1d]
10 mm: S. epidermidis 125; Quantity n 0.029 | [4]; Quantity n 0.14 | S. epidermidis 847; Quantity n [mol] 0.14
18 mm: S. aureus 36881; Quantity n 0.29 | [5]; Quantity n 0.029 | S. epidermidis 563; Quantity n 0.29 | S. epidermidis 1071; Quantity n 0.29
30 mm: [5]; Quantity n 0.14 | B. subtilis AWD 166; Quantity n 0.14
r: [1]; Quantity n 0.029 | [2]; Quantity n 0.029 | [2]; Quantity n 0.14 | [3]; Quantity n 0.029 | [3]; Quantity n 0.14 | [3]; Quantity n 0.29 | S. aureus 526; Quantity n 0.029 | S. aureus 526; Quantity n 0.14 | S. aureus 526; Quantity n 0.29 | S. aureus 34289; Quantity n [mol] 0.029 | S. aureus 34289; Quantity n [mol] 0.14 | S. aureus 34289; Quantity n [mol] 0.29 | S. aureus 36881; Quantity n 0.029 | [4]; Quantity n 0.029 | S. aureus 33490; Quantity n [μmol] 0.029 | S. aureus 39105; Quantity n 0.029 | S. aureus 39105; Quantity n 0.14 | S. aureus 520; Quantity n [mol] 0.029 | S. aureus 520; Quantity n [mol] 0.14 | S. aureus 520; Quantity n [mol] 0.29 | S. epidermidis 1068; Quantity n 0.029 | S. epidermidis 563; Quantity n 0.029 | S. epidermidis 847; Quantity n [mol] 0.029 | S. epidermidis 1071; Quantity n 0.029 | E. faecalis 945; Quantity n 0.029 | E. faecalis 945; Quantity n 0.14 | E. faecalis 945; Quantity n 0.29
20 mm: S. epidermidis 125; Quantity n 0.14
24 mm: S. epidermidis 125; Quantity n 0.29
14 mm: S. aureus 36881; Quantity n 0.14 | S. aureus 33490; Quantity n [μmol] 0.14 | S. aureus 39105; Quantity n 0.29 | S. epidermidis 1068; Quantity n 0.29 | S. epidermidis 847; Quantity n [mol] 0.29 | S. epidermidis 1071; Quantity n 0.14
12 mm: [1]; Quantity n 0.14 | [4]; Quantity n 0.29 | S. epidermidis 1068; Quantity n 0.14 | S. epidermidis 563; Quantity n 0.14
34 mm: [5]; Quantity n 0.29 | B. subtilis AWD 166; Quantity n 0.29
22 mm: B. subtilis AWD 166; Quantity n 0.029
16 mm: [1]; Quantity n 0.29 | S. aureus 33490; Quantity n [μmol] 0.29
8 mm: [2]; Quantity n 0.29

7-{2-2-(2-hydroxyethylcarbamoyl)-3,6-dioxyocyclohexa-1,4-dienylamino]-2-(4-hydroxyphenyl)-acetylamino}-desacetoxycephalosporanic acid [1a]
10 mm: [2]; Quantity n 0.1 | S. aureus 526; Quantity n 0.19 | S. aureus 36881; Quantity n 0.1 | S. epidermidis 1068; Quantity n 0.1 | S. epidermidis 563; Quantity n 0.1
14 mm: [1]; Quantity n 0.1 | S. epidermidis 125; Quantity n 0.019 | S. aureus 33490; Quantity n [μmol] 0.1 | S. aureus 39105; Quantity n 0.19
18 mm: [4]; Quantity n 0.19 | S. aureus 33490; Quantity n [μmol] 0.19 | S. epidermidis 1071; Quantity n 0.1
22 mm: [5]; Quantity n 0.019
30 mm: [5]; Quantity n 0.1 | B. subtilis AWD 166; Quantity n 0.1
20 mm: S. epidermidis 847; Quantity n [mol] 0.19 | S. epidermidis 1071; Quantity n 0.19
r: [2]; Quantity n 0.019 | [3]; Quantity n 0.019 | [3]; Quantity n 0.1 | [3]; Quantity n 0.19 | S. aureus 526; Quantity n 0.019 | S. aureus 526; Quantity n 0.1 | S. aureus 34289; Quantity n [mol] 0.019 | S. aureus 34289; Quantity n [mol] 0.1 | S. aureus 34289; Quantity n [mol] 0.19 | S. aureus 36881; Quantity n 0.019 | [4]; Quantity n 0.019 | S. aureus 33490; Quantity n [μmol] 0.019 | S. aureus 39105; Quantity n 0.019 | S. aureus 39105; Quantity n 0.1 | S. aureus 520; Quantity n [mol] 0.019 | S. aureus 520; Quantity n [mol] 0.1 | S. epidermidis 1068; Quantity n 0.019 | S. epidermidis 563; Quantity n 0.019 | S. epidermidis 847; Quantity n [mol] 0.019 | S. epidermidis 1071; Quantity n 0.019 | E. faecalis 945; Quantity n 0.019 | E. faecalis 945; Quantity n 0.1 | E. faecalis 945; Quantity n 0.19
24 mm: S. epidermidis 125; Quantity n 0.1 | B. subtilis AWD 166; Quantity n 0.019
28 mm: S. epidermidis 125; Quantity n 0.19
12 mm: S. aureus 520; Quantity n [mol] 0.19
32 mm: [5]; Quantity n 0.19 | B. subtilis AWD 166; Quantity n 0.19
16 mm: [1]; Quantity n 0.19 | [2]; Quantity n 0.19 | S. aureus 36881; Quantity n 0.19 | [4]; Quantity n 0.1 | S. epidermidis 1068; Quantity n 0.19 | S. epidermidis 563; Quantity n 0.19 | S. epidermidis 847; Quantity n [mol] 0.1
r^2: [1]; Quantity n 0.019
